Assay results published in patent publication US20230150951A1, “2,5- OR 2,6-DISUBSTITUTED HYDROQUINONE DERIVATIVES WITH AT LEAST ONE CARBOXY, SULFO OR AMIDO GROUP USEFUL AS MEDICAMENTS” (OM PHARMA SA, priority 2020, published 2023).
Read-outs that look alike come from different tables or passages of the source.

Tests used:
Type in all cases: cell-based
[1] = system: IL-12p70; experiment: Cytokine release after LPS induction on human whole blood: IL-12p70
[2] = system: GM-CSF; experiment: Cytokine release after LPS induction on human whole blood: GM-CSF
Protocol: Aim of this in vitro method is to assess compounds effects on release of a panel of cytokines from whole blood following lipopolysaccharide (LPS) induced inflammatory reaction. Whole blood was incubated with compounds for 1 h prior to LPS induction. Cytokine levels in blood were measured using a multiplex FACS-based panel.
IC50 values determined for the tested compounds expressed in microM [μM] and the values for the inhibition of cytokines were listed for each compound.
Effect on cytokines release after LPS induction was performed on the compounds dissolved in DMSO or H2O to reach 10-fold concentrated stock solutions and dissolved in culture media.
Test system: Whole blood was removed from a single donor (into lithium heparin coated tubes; BD Vacutainer; 367886) and diluted 1:5 with RPMI 1640 (Thermo Fisher, 61870036). Within 30 minutes of sampling, blood was incubated with compounds for 1 h prior to LPS stimulation (O111:B4—Sigma L4391; 10 ng/ml final concentration). Stimulation continued under standard cell culture conditions (37° C. with 5% CO2) overnight (18 h), after which plates were centrifuged and supernatant removed and frozen at −80° C. until used for analyses.
Dilution of test compounds: 10×concentrated solutions (concerning to the final assay concentrations) of each test compound were prepared with the appropriate solvent (in DMSO or in water). These 10× compound solutions (10 μl) were then added to 90 μl pre-diluted whole blood (whole blood: RPMI1640, 1:5) resulting in the final assay concentration.
Test method: Diluted whole blood (80 μl) was pre-incubated with compounds (10 μl) to give final assay concentrations of 100, 30, 10, 3, 1, 0.3 and 0.1×10^−6M. Blood was incubated at 37° C. with 5% CO2 for 1 h. LPS was diluted in cell culture media to a concentration of […]; 10 μl was added to the whole blood to give a final concentration of 10 ng/ml. Plates were incubated at 37° C. for 18 h. Plates were centrifuged at 3,000 RPM for 5 minutes at 4° C. and supernatant removed and frozen at −80° C. until FACS analysis was carried out.
Cytokine release was measured using a custom multiplex system (ELISA Genie) according to manufacturers instructions. Prepared samples were run on an Attune NxT flow cytometer (Thermo Fisher).
Quantification of cytokine release inhibition: known concentration standards were run as part of the cytokine panel to allow quantification of each cytokine concentration in each sample. This was carried out using FCAP Array v3.0 software.
Results: The dose response relationship on cytokine release following LPS induction of inflammatory response in whole blood was assessed for all compounds. IC50 values were determined for each compound for a panel of cytokines (GM-CSF, IFN-gamma, IL-1beta, IL-2, IL-4, IL-5, IL-6, IL-8, IL-9, IL-10, IL-12p40, IL-13, IL-17A, IL-17F, IL-18, IL-21, IL-22, IL-33, TGF-beta, TNF-alpha, TNF-beta).

[3] = molecular target: T1, FGF-1 (Homo sapiens, UniProt P05230); experiment: FGF-1 induced sprouting of HUVEC, spheroid-based cellular angiogenesis assay; conditions: FGF-1 25 ng/mL preincubated with compound, 24 h
T1 construct: purchased Peprotech 100-17A
In short: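 Spheroids of 400 HUVEC (passage 3–4), embedded in collagen gel, were stimulated with FGF-1, FGF-2 or VEGF-A (final 25 ng/mL) preincubated 30 min at 37°C with compound (final 1.56–100 μM).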

[4] = Homo sapiens, LPS 10 ng/ml, 18 h, read-out: Whole Blood: IL-12p70 IC50
[5] = human whole blood, inhibition of LPS induced inflammation, read-out: IC50 IL-12p70
[6] = Homo sapiens, LPS 10 ng/ml, 18 h, read-out: Whole Blood: GM-CSF IC50
[7] = human whole blood, inhibition of LPS induced inflammation, read-out: IC50 GM-CSF

T1 sequence (P05230 whole entry): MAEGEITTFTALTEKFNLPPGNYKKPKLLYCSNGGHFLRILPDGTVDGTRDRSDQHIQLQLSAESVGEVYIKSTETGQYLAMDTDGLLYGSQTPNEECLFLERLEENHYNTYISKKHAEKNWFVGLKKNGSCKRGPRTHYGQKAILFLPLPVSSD

Compound | IC50 [1, 4] [µM] | IC50 [1, 5] [µM] | IC50 [2, 6] [µM] | IC50 [2, 7] [µM] | IC50 [3] [µM] | IC50 ([1]; Homo sapiens, 18 h, read-out: Whole Blood: IL-12p70 IC50) [µM] | IC50 ([1]; Homo sapiens, read-out: IC50 IL-12p70) [µM] | IC50 ([2]; Homo sapiens, 18 h, read-out: Whole Blood: GM-CSF IC50) [µM] | IC50 ([2]; Homo sapiens, read-out: IC50 GM-CSF) [µM]
CC(=O)N(Cc1cc(O)c(C(=O)O)cc1O)Cc1cc(O)c(C(=O)O)cc1O [IIIc-057a, N,N-Bis(4-carboxy-2,5-dihydroxyphenylmethyl)acetamide] | 0.73 | 0.73 | > 100 | 100 | 87 |  |  |  | 
O=C(O)c1cc(NC(=O)c2cc(O)c(C(=O)Nc3ccc(O)c(C(=O)O)c3)cc2O)ccc1O [Ic-007a, 5-(4-(3-carboxy-4-hydroxyphenylaminocarbonyl)-2,5-dihydroxybenzamido)-2-hydroxy benzoic acid] | 0.49 | 0.49 | > 100 | 100 | 13 |  |  |  | 
O=C(Nc1ccccc1-c1nnn[nH]1)c1cc(O)c(C(=O)Nc2ccccc2-c2nnn[nH]2)cc1O [Ic-001aTz2, N1,N4-bis(2-(1H-tetrazol-5-yl)phenyl)-2,5-dihydroxyterephthalamide] | 29.1 |  | > 100 |  | ≥ 200 |  |  |  | 
COC(=O)c1cc(OC(C)=O)cc(CS(=O)(=O)Cc2cc(OC(C)=O)cc(C(=O)OC)c2OC(C)=O)c1OC(C)=O [IVc-059a-E2-A4] | 51.4 | 51.4 | 1.83 | 1.83 | 54 |  |  |  | 
O=C(O)Cc1cc(O)c(C(=O)Nc2c(C(=O)O)cccc2C(=O)O)cc1O [IIIa-013a, 2-(4-(carboxymethyl)-2,5-dihydroxybenzamido)isophthalic acid] | 0.5 | 0.5 | 27.8 | 27.8 | 17 |  |  |  | 
O=C(O)c1cc(O)cc(CS(=O)(=O)Cc2cc(O)cc(C(=O)O)c2O)c1O [IVc-059a, 3-((2,5-Dihydroxy-3-carboxyphenyl)methylsulfonylmethyl)-2,5-dihydroxybenzoic acid] | 42 | 42 | > 100 | 100 | 6.7 |  |  |  | 
O=C(O)c1cc(NC(=O)c2cc(O)c(C(=O)Nc3ccccc3-c3nnn[nH]3)cc2O)ccc1O [Ic-001a-Tz/004a, 5-(4-(2-(1H-tetrazol-5-yl)phenylaminocarbonyl)-2,5-dihydroxybenzamido)-2-hydroxy benzoic acid] |  |  |  |  | 19 | 12.2 | 12.2 | 3.4 | 3.4
O=C(O)c1cc(NC(=O)c2cc(O)cc(C(=O)Nc3ccc(O)c(C(=O)O)c3)c2O)ccc1O [IIc-007a, 5-(3-(3-carboxy-4-hydroxyphenylaminocarbonyl)-2,5-dihydroxybenzamido)-2-hydroxy benzoic acid] | 3.37 | 3.37 | 26 | 26 | 11 |  |  |  | 
O=C(O)c1cc(O)cc(CSCc2cc(O)cc(C(=O)O)c2O)c1O [IVc-058a, 3-((2,5-Dihydroxy-3-carboxyphenyl)methylthiomethyl)-2,5-dihydroxybenzoic acid] | 4.23 | 4.23 | > 100 | 100 | 36 |  |  |  | 
O=C(O)c1cc(O)c(C(=O)Nc2ccccc2-c2nnn[nH]2)cc1O [Ia-001a-Tz, 4-(2-(1H-tetrazol-5-yl)phenyl-aminocarbonyl)-2,5-dihydroxybenzoic acid] | 32.4 | 32.4 | > 100 | 100 | 6.2 |  |  |  | 
O=C(O)c1cc(O)c(C(=O)Nc2ccccc2C(=O)O)cc1O [Ia-001a, 4-(2-carboxyphenylaminocarbonyl)-2,5-dihydroxybenzoic acid] | 1.5 | 1.5 | > 100 | 100 | 41 |  |  |  | 
O=C(O)c1cc(O)ccc1NC(=O)c1cc(O)cc(C(=O)Nc2ccc(O)cc2C(=O)O)c1O [IIc-009a, 2-(3-(2-carboxy-4-hydroxyphenylaminocarbonyl)-2,5-dihydroxybenzamido)-5-hydroxyl benzoic acid] | > 100 | 100 | > 100 | 100 | 30 |  |  |  | 

Further lines, with some results ahead:

IC50 [1, 4] [µM] | IC50 [1, 5] [µM] | IC50 [2, 6] [µM] | IC50 [2, 7] [µM] | IC50 [3] [µM] | Compound | IC50 ([1]; Homo sapiens, 18 h, read-out: Whole Blood: IL-12p70 IC50) [µM] | IC50 ([1]; Homo sapiens, read-out: IC50 IL-12p70) [µM] | IC50 ([2]; Homo sapiens, 18 h, read-out: Whole Blood: GM-CSF IC50) [µM] | IC50 ([2]; Homo sapiens, read-out: IC50 GM-CSF) [µM]
0.27 | 0.27 | > 100 | 100 | 14 | O=C(O)c1cc(NC(=O)c2cc(O)c(C(=O)O)cc2O)cc(NC(=O)c2cc(O)c(C(=O)O)cc2O)c1 [Ib-010a, 3,5-bis(2,5-dihydroxy-4-carboxybenzoylamino)benzoic acid] |  |  |  | 
0.27 | 0.27 | > 100 | 100 | 84 | O=C(O)c1ccccc1CNC(=O)c1cc(O)cc(C(=O)O)c1O [IIa-053a, 3-(2-Carboxyphenylmethylaminocarbonyl)-2,5-dihydroxybenzoic acid] |  |  |  | 
1.26 | 1.26 | > 100 | 100 | 6.7 | O=C(O)c1cc(O)c(C(=O)Nc2ccc(-c3nnn[nH]3)cc2)cc1O [Ia-003a-Tz, 4-(4-(1H-tetrazol-5-yl)phenyl-aminocarbonyl)-2,5-dihydroxybenzoic acid] |  |  |  | 
37.2 | 37.2 | 31.2 | 31.2 |  | O=C(O)c1cc(O)c(CN(Cc2cc(O)c(C(=O)O)cc2O)Cc2cc(O)c(C(=O)O)cc2O)cc1O [IIIc-061a, Tris(4-carboxy-2,5-dihydroxyphenylmethyl)amine] |  |  |  | 
0.12 | 0.12 | 2.76 | 2.76 | 20 | O=C(O)c1cc(NC(=O)c2cc(O)c(C(=O)O)cc2O)cc(C(=O)O)c1 [Ia-015a, 5-(4-carboxy-2,5-dihydroxybenzamido)isophthalic acid] |  |  |  | 
0.44 | 0.44 | > 100 | 100 | 21 | O=C(O)c1cc(O)c(C(=O)Nc2ccccc2S(=O)(=O)O)cc1O [Ia-001c, 2,5-dihydroxy-4-(2-sulfophenylaminocarbonyl)benzoic acid] |  |  |  | 
0.48 | 0.48 | > 100 | 100 | 51 | O=C(O)Cc1cc(O)c(C(=O)Nc2ccccc2-c2nnn[nH]2)cc1O [IIIa-001aTz] |  |  |  | 
0.84 | 0.84 | > 100 | 100 | 26 | CCOC(=O)c1cc(NC(=O)c2cc(O)c(C(=O)OCC)cc2O)cc(NC(=O)c2cc(O)c(C(=O)OCC)cc2O)c1 [Ib-010a-E3, ethyl 3,5-bis(2,5-dihydroxy-4-ethoxycarbonylbenzoylamino)benzoate] |  |  |  | 
